Assay results as given in US9169509B2, “Topoisomerase 2b as a predictor of susceptibility to anthracycline-induced cardiotoxicity” (Board of Regents, The University of Texas System, priority 2013, dated 2015).

System: heart sections
Experiment: Transmission electron microscopy of heart sections
Type: in vivo, mouse
Conditions: for Ultra-structural changes of mitochondria (electron microscopy): doxorubicin 25 mg/kg for 72 h
Procedure: To examine doxorubicin-induced ultra-structural damages, wildtype and mice with Top2 deletion in the cardiomyocytes were treated with doxorubicin (25 mg/kg for 72 h or 5 mg/kg once a week for 5 weeks) or drug vehicle. Heart was quickly removed. After rinse with PBS and blot dried, 10-20 pieces of tissue samples (1×2×2 mm) were taken from the myocardium of the left ventricle. Tissue samples were immediately fixed in 3% phosphate glutaraldehyde. Before sectioning, tissue samples were washed in […] sodium phosphate buffer (pH 7.3), post fixed in 1% osmium tetroxide for 1 h and dehydrated through a series of graded alcohol. Then tissue samples were infiltrated with acetone and phlybed 812 plastic resin and embedded in plastic block molds with 100% polybed 812. One micron sections (thick sections) were cut on ultra microtome and placed on glass slides and stained with toluidine blue. Ultra thin sections (80 nm) were cut from sample blocks using a RMC MTXL Ultra Microtome and mounted on 100 mesh copper grids. Grids were stained with 2% uranyl acetate and Reynold's lead stain. 9 sections were analyzed from each animal heart. Grids were examined with a JEOL 1230 electron microscope and images were capture with an AMTV 600 imaging system.

Compound: COc1cccc2c1C(=O)c1c(O)c3c(c(O)c1C2=O)C[C@@](O)(C(=O)CO)C[C@@H]3O[C@H]1C[C@H](N)[C@H](O)[C@H](C)O1 [doxorubicin]
- Ultrastructural changes in mitochondria (EM) (Top2b+/+ hearts, chronic doxorubicin 5 mg/kg once a week for 5 weeks): ultrastructural changes in mitochondria
- Ultra-structural changes of mitochondria (electron microscopy) (Top2b+/+ mouse heart): marked mitochondria damage and vacuolization
- Ultra-structural changes of mitochondria (electron microscopy) (Top2bΔ/Δ heart): minimal ultra-structural changes
